Measured values from PMC5429769, “Rational development of Stafib-2: a selective, nanomolar inhibitor of the transcription factor STAT5b” (Scientific Reports, 2017).
Entries after “also recorded” stand apart in the source; their conditions may differ.

Experiments:
STAT5a SH2 domain = molecular target: T1, STAT5a SH2 domain (Homo sapiens, UniProt P42229); experiment: Fluorescence polarization assay, STAT5a SH2 domain; format: binding; conditions: mean ± s.d.; for Ki: converted from IC50 using the published equation, n = 3; for IC50: fluorescence polarization, three independent experiments
T1 sequence (P42229 1-794): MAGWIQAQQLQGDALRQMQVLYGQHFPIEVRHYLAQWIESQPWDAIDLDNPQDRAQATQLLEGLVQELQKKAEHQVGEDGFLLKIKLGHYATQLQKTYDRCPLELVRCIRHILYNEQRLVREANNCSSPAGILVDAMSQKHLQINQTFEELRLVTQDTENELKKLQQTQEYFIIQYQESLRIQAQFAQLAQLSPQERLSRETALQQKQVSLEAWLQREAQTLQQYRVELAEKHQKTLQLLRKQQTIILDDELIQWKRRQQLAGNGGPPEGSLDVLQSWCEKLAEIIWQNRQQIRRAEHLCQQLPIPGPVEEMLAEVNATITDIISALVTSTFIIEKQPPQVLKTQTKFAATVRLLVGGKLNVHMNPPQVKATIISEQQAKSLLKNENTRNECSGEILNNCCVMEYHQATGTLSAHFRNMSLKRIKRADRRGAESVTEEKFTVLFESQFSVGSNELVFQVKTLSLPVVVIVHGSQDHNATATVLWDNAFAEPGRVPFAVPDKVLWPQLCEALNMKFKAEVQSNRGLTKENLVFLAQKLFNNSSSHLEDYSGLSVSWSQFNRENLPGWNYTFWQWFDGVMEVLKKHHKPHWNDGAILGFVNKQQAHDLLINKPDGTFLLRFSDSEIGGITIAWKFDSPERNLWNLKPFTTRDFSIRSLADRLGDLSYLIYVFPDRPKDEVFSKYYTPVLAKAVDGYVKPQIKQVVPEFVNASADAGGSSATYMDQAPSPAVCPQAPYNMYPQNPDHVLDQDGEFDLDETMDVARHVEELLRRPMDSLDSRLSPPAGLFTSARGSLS

STAT5b SH2 domain = molecular target: T2, STAT5b SH2 domain (Homo sapiens, UniProt P51692); experiment: Fluorescence polarization assay, STAT5b SH2 domain; format: binding; conditions: for Ki: converted from IC50 using the published equation, n = 3; for Ki / IC50: mean ± s.d.; for IC50: fluorescence polarization, three independent experiments
T2 sequence (P51692 1-787): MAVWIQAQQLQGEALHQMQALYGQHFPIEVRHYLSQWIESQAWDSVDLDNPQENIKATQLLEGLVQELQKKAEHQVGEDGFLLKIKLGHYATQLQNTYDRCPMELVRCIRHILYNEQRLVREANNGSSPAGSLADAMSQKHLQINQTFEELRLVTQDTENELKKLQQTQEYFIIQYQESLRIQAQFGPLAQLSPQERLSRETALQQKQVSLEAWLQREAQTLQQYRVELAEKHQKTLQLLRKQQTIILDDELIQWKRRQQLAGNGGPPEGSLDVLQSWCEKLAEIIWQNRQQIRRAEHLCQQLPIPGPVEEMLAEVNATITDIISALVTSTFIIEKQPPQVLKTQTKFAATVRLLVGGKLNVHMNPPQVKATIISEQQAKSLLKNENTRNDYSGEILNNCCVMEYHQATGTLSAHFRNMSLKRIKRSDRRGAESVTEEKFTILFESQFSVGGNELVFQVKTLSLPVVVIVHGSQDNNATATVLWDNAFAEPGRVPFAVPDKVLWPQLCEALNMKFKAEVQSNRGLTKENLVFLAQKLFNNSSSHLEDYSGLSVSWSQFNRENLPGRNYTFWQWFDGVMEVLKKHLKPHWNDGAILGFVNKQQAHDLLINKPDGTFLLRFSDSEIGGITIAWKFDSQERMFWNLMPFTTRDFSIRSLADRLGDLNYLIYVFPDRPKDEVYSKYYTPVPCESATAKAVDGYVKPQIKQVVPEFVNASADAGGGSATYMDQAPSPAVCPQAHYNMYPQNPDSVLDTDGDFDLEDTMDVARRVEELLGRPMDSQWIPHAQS

endogenous STAT5 = experiment: Tyrosine phosphorylation of endogenous total STAT5 in STAT5a/b-GFP-transfected K562 cells; format: cell-based, human; conditions: result in words
STAT5b-GFP [1] = molecular target: T3, STAT5b-GFP (Homo sapiens, UniProt P51692); experiment: STAT5b Tyr699 phosphorylation in STAT5b-GFP-transfected K562 cells (Western blot); format: cell-based; conditions: STAT5b-GFP-transfected K562 cells
T3 sequence (P51692 1-787): T2 sequence (P51692 1-787)

STAT5a-GFP = experiment: STAT5a Tyr694 phosphorylation in STAT5a-GFP-transfected K562 cells (Western blot); format: cell-based, human; conditions: 4 h, result in words
K562 cells = experiment: Apoptosis assay (Annexin V / 7-AAD flow cytometry), K562 cells; format: cell-based, human; conditions: untransfected K562 cells, 48 h, result in words
MDA-MB-231 cells = experiment: Apoptosis assay (Annexin V / 7-AAD flow cytometry), MDA-MB-231 cells; format: cell-based; conditions: MDA-MB-231 cells (STAT5-independent), 48 h, result in words
STAT5b-GFP [2] = experiment: STAT5b Tyr699 phosphorylation in STAT5b-GFP-transfected K562 cells (Western blot); format: cell-based, human; conditions: STAT5b-GFP-transfected K562 cells, 4 h, result in words

SMILES	Ki (STAT5a SH2 domain) [µM]	IC50 (STAT5a SH2 domain) [µM]	Ki (STAT5b SH2 domain) [µM]	IC50 (STAT5b SH2 domain) [µM]	inhibition of STAT5a phosphorylation (STAT5a-GFP)	further results
O=C(COc1ccc2cc(C(=O)Nc3ccc(Oc4ccccc4)cc3)ccc2c1)NCc1ccc(OP(=O)(O)O)c(OP(=O)(O)O)c1 [compound 3]	2.9 ± 0.1	5.8 ± 0.3	0.093 ± 0.003	0.19 ± 0.01		fold less active than 2 (STAT5b SH2 domain; STAT5b Ki relative to 2): 2 fold
O=C(COc1ccc(C(=O)Nc2ccccc2)cc1)NCc1ccc(OP(=O)(O)O)c(OP(=O)(O)O)c1 [compound 5]	4.8 ± 0.1	9.7 ± 0.3	0.11 ± 0.01	0.28 ± 0.01		
O=C(COc1ccc(C(=O)Nc2ccc(Oc3ccccc3)cc2)cc1)NCc1ccc(O)c(O)c1 [compound 7]						STAT5b inhibition (STAT5b SH2 domain; at 80 µM): lack of activity; also recorded: no inhibition at 80 µM
CC(C)(C)C(=O)OCOP(=O)(OCOC(=O)C(C)(C)C)Oc1ccc(CNC(=O)COc2ccc(C(=O)Nc3ccc(Oc4ccccc4)cc3)cc2)cc1OP(=O)(OCOC(=O)C(C)(C)C)OCOC(=O)C(C)(C)C [compound 8, ((((4-((2-(4-((4-Phenoxyphenyl)carbamoyl)phenoxy)acetamido)methyl)-1,2-phenylene)bis(oxy))bis(oxo-l5-phosphanetriyl))tetrakis(oxy))tetrakis(methylene) tetrakis(2,2-dimethylpropanoate)]					not significantly reduced; also recorded: not inhibited	inhibition of phosphorylation of endogenous STAT5 (endogenous STAT5): inhibited; fold more active against STAT5b phosphorylation than the pivaloyloxymethylesters of 2 and of Capstafin (STAT5b-GFP [1]): 2.5 fold; inhibition of STAT5b phosphorylation (STAT5b-GFP [1]; 4 h, result in words): Dose-dependent inhibition; inhibition of STAT5a phosphorylation (STAT5a-GFP; listed as Pomstafib-2): without significantly affecting; apoptotic rate (K562 cells): dose-dependent increase; also recorded: increased; apoptotic rate (MDA-MB-231 cells): does not increase; also recorded: not increased
CC(C)(C)C(=O)OCOP(=O)(Cc1ccccc1CP(=O)(OCOC(=O)C(C)(C)C)OCOC(=O)C(C)(C)C)OCOC(=O)C(C)(C)C [compound 9, reference compound]					lack of inhibition	inhibition of STAT5b phosphorylation (STAT5b-GFP [2]): lack of inhibition
